Results published in US8609897B2, “Trifluoromethylsulfonamide gamma secretase inhibitor” (Merck Sharp & Dohme Corp., priority 2009, dated 2013).
Like-named read-outs stand apart in the source and are kept apart here. Each block holds one compound with its values, some of them ahead of it.

What was measured:
[1] = test system: T1, gamma secretase-dependent cleavage of the Notch protein, HeLa cells; assay: Notch processing, split-luciferase assay in HeLa cells; format: cell-based; conditions: cell based assay, HeLa cells, NotchΔE split-luciferase
T1 construct: HeLa Notch; other: cell based assay, HeLa cells, NotchΔE split-luciferase
Source text: (§1) Notch Processing: (Assay Quantitates Notch Intracellular Domain Release in Cell Lines):
(§2) A “split-luciferase” assay is used to measure inhibition of gamma secretase-dependent cleavage of the Notch protein. In this assay, HeLa cells were made to express a Notch protein lacking its extracellular domain (NotchΔE) fused to an N-terminal fragment of luciferase. The same cells also expressed a C-terminal fragment of luciferase fused to the immunoglobulin J kappa recombination signal sequence binding protein (RBP). Upon NotchΔE cleavage by gamma secretase, a Notch intracellular domain (NICD)-N terminal luciferase protein is generated which translocates to the nucleus and binds the RBP-C terminal luciferase fusion, bringing two independently nonfunctional halves of luciferase together to form a functional luciferase enzyme. The activity of luciferase in these cells is directly proportional to the amount of gamma secretase-cleaved Notch. Luciferase activity is determined by the standard techniques of luciferin addition to lysed cells and measurement of total luminescence.

[2] = test system: gamma secretase-dependent cleavage of the Notch protein, HeLa cells; assay: as above; format: cell-based; conditions: ratio HeLa Notch to SY5Y Aβ40
Source text: as §1, §2

[3] = Pharmacokinetics in Sprague Dawley rats; format: in vivo; conditions: Rat; for AUC (Norm)(0-x) / clearance / half-life: 0.25 mg/kg; for clearance / half-life / bioavailability: Sprague Dawley, plasma; for clearance: intravenous; for bioavailability: 0.25 mg/kg IV or PO
Procedure: (§3) Pharmacokinetic parameters were determined in Sprague Dawley rats, Beagle dogs and Rhesus monkeys by dosing the compounds intravenously (IV) or orally (PO). A dose of 0.25 mg/kg was administered either IV or PO to each subject with a dosing solution of 0.25 mg/ml in a 30:70 v/v mixture of PEG400:40% Captisol®. Plasma samples were collected at 5 min. (IV only), 15 min., 30 min., 1 h, 2 h, 4 h, 6 h, 8 h, 24 h, 48 h, 72 h, 96 h, 120 h, 144 h, and 168 h. Samples were analyzed by LC-MS/MS (API5000™) to determine the concentration in plasma. Briefly, 50 μL plasma was precipitated with 200 μL acetonitrile containing an appropriate internal standard. Samples were filtered, 500 μL of water was added to each sample and 10 μL of this was injected on a C18 column (2.0 mm×30 mm, 3 μm particle size) and eluted using a gradient LC method with water containing 0.1% formic acid as the aqueous mobile phase, and acetonitrile containing 0.1% formic acid as the organic phase. Electrospray ionization with multiple reaction monitoring was used for MS/MS detection. Plasma concentration of the compounds was determined using a standard curve that was prepared similar to the samples in the respective matrix. Non-compartmental analysis was performed using Watson 7.2 to generate the PK parameters.

[4] = test system: γ-secretase (APP processing), SH-SY5Y cells expressing amyloid β protein (SP4CT cells); assay: APP processing, secreted Aβ40 and Aβ42 from SH-SY5Y (SP4CT) cells, AlphaLisa; conditions: cell based assay
Procedure: APP Processing (Assay Quantitates Secreted Aβ Analytes from Cell Lines):
The effect of compounds on the abundance of Aβ40 and Aβ42 peptides generated from SH-SY5Y cells expressing amyloid β protein (SP4CT cells) was determined by an AlphaLisa™ assay. Analogous to an ELISA assay, generation of signal in this AlphaLisa™ assay requires “donor” and “acceptor” beads to be brought in close proximity by specific antibody recognition of either Aβ40 or Aβ42 peptides. The assay was accomplished by removing media from compound-treated SP4CT cells to two different microplates, followed by the addition of donor beads conjugated with streptavidin binding a biotinylated anti-amyloid β monocolonal antibody (clone 408). Acceptor beads directly conjugated with anti-Aβ40 monoclonal antibody (G210) were added to one microplate and anti-Aβ42 monoclonal antibody (12F4) acceptor beads were added to the other. Abundance of Aβ40 and Aβ42 was directly proportional to the luminescent signal generated following excitation of donor beads by laser light.

[5] = Pharmacokinetics in Beagle dogs; format: in vivo; conditions: Dog; for clearance / half-life / bioavailability: Beagle, plasma; for clearance: intravenous; for clearance / half-life / AUC (Norm)(0-x): 0.25 mg/kg; for bioavailability: 0.25 mg/kg IV or PO
Procedure: as §3

[6] = biological target: semi-purified γ-secretase; assay: In vitro APP processing (C100Flag substrate, semi-purified γ-secretase, MESO Scale ELISA), mouse brain membranes; format: biochemical; conditions: in vitro assay
Procedure: (§4) In Vitro APP Processing (Assay Quatitates Aβ Analytes Generated from a Recombinant APPC100Flag Substrate Incubated with Semi-Purified γ-Secretase)
(§5) The effect of compounds on the abundance of Aβ40 and Aβ42 peptides generated from exogenous C100Flag substrate by semi-purified γ-secretase was determined by MESO Scale ELISA. Generation of signal in this MESO Scale assay requires an anti-amyloid monoclonal antibody (clone 408) conjugated with streptavidin to bind to a biotin-coated plate. Specific [Ru(bpy)3]2+-labeled monoclonal antibodies for either Aβ40 (G210) or Aβ42 (12F4) subsequently generate an electrochemiluminescence signal upon electrochemical stimulation. The assay was accomplished by incubating compound, C100Flag substrate and CHAPSO-solubilized P2 membranes from HeLa cells or brains of mouse, rat, or dog. The reaction was then transferred to two different biotinylated microplates for detection of either Aβ40 or Aβ42.

[7] = biological target: semi-purified γ-secretase; assay: In vitro APP processing (C100Flag substrate, semi-purified γ-secretase, MESO Scale ELISA), dog brain membranes; format: biochemical; conditions: in vitro assay
Procedure: as §4, §5

[8] = Pharmacokinetics in Rhesus monkeys; format: in vivo; conditions: for AUC (Norm)(0-x) / half-life / clearance: 0.25 mg/kg; for half-life / bioavailability / clearance: rhesus monkey, plasma; for bioavailability: 0.25 mg/kg IV or PO; for clearance: intravenous
Procedure: as §3

[9] = biological target: semi-purified γ-secretase; assay: In vitro APP processing (C100Flag substrate, semi-purified γ-secretase, MESO Scale ELISA), rat brain membranes; format: biochemical; conditions: in vitro assay
Procedure: as §4, §5

[10] = test system: CSF Aβ40 and Aβ42; assay: Example B: CSF Aβ40 and Aβ42 levels and tolerability in rhesus monkeys, once-weekly oral 30 mpk; format: in vivo; conditions: oral once-weekly 30 mpk
Procedure: Example 1 was administered orally to rhesus monkeys once-weekly at a dose of 30 mpk and levels of Aβ40 and Aβ42 in the cerebrospinal fluid (CSF) were monitored.

[11] = Example A: PK profile in Rhesus monkeys, 30 mg/kg PO single dose; format: in vivo; conditions: rhesus monkey, plasma
Source text: (§6) Peak lowering of ˜46% was observed 24 hrs after each dose. […] Terminal phase pharmacokinetic characteristics of Example 1 in Rhesus monkey provide continuous inhibition over the course of one week achieving both an average as well as minimum reduction of CSF Aβ40 of >25%.

[12] = test system: CSF Aβ40; assay: Example A: CSF Aβ40 reduction and tolerability in Rhesus monkeys, 30 mg/kg PO, one week; format: in vivo
Source text: as §6

[13] = Aβ40, read-out: Tissue autonomous Aβ40, Mouse
[14] = Aβ40, read-out: Tissue autonomous Aβ40, Dog
[15] = Aβ40, read-out: Tissue autonomous Aβ40, Rat

IC50 [1]: 154 nM
AUC (Norm)(0-x) [3]: 6.0 µM·kg·h/mg
clearance [3]: 5.9 mL/min/kg
half-life [3]: 101 h
bioavailability [3]: 116%
IC50 ([4]; Aβ40, read-out: SY5Y Aβ40): 0.99 nM
IC50 ([4]; Aβ42, read-out: SY5Y Aβ42): 0.99 nM
clearance [5]: 0.383 mL/min/kg
half-life [5]: 254 h
bioavailability [5]: 55%
AUC (Norm)(0-x) [5]: 49.5 µM·kg·h/mg
Compound: O=S(=O)(N[C@H]1CC[C@@](c2cc(F)ccc2F)(S(=O)(=O)c2ccc(C(F)(F)F)cc2)CC1)C(F)(F)F [Example 62 from U.S. Pat. No. 6,890,956]
Notch/Aβ40 [2]: 156

Compound: O=S(=O)(N[C@H]1CC[C@@](c2cc(F)ccc2F)(S(=O)(=O)c2ccc(Cl)cc2)CC1)C(F)(F)F [MRK-560]
IC50 [6, 13]: 0.8 nM
IC50 ([6]; Aβ42, read-out: Tissue autonomous Aβ42, Mouse): 0.4 nM
IC50 [1]: 112 nM
Notch/Aβ40 [2]: 155
clearance [3]: 2.2 mL/min/kg
half-life [3]: 26 h
bioavailability [3]: 67%
IC50 [7, 14]: 5.2 nM
IC50 ([7]; Aβ42, read-out: Tissue autonomous Aβ42, Dog): 1.3 nM
AUC (Norm)(0-x) [8]: 9.4 µM·kg·h/mg
half-life [8]: 12 h
bioavailability [8]: 23%
clearance [8]: 0.8 mL/min/kg
IC50 [9, 15]: 1 nM
IC50 ([9]; Aβ42, read-out: Tissue autonomous Aβ42, Rat): 0.4 nM
IC50 ([4]; Aβ40, read-out: SY5Y Aβ40): 0.72 nM
IC50 ([4]; Aβ42, read-out: SY5Y Aβ42): 0.51 nM
clearance [5]: 4.7 mL/min/kg
half-life [5]: 18 h
bioavailability [5]: 14%
AUC (Norm)(0-x) [5]: 1.1 µM·kg·h/mg

Compound: O=S(=O)(N[C@H]1CC[C@@](c2cc(F)ccc2C(F)(F)F)(S(=O)(=O)c2ccc(C(F)(F)F)cc2)CC1)C(F)(F)F [Example 1, 1,1,1-trifluoro-N-(4-[5-fluoro-2-(trifluoromethyl)phenyl]-4-{[4-(trifluoromethyl)phenyl]sulfonyl}cyclohexyl)methanesulfonamide]
IC50 [6, 13]: 2.4 nM
GI toxicity ([10]; over a 3 week period): no evidence of GI toxicity
average reduction in CSF Aβ40 levels relative to vehicle-treated controls ([10]; over a 3 week period): approximately 40%
average reduction in CSF Aβ42 levels relative to vehicle-treated controls ([10]; over a 3 week period): approximately 40%
side-effects leading to study termination ([10]; study terminated after 3 weeks): respiratory side-effects unconnected with Notch signaling
IC50 [1]: 518 nM
Notch/Aβ40 [2]: 370
AUC (Norm)(0-x) [3]: 8.7 µM·kg·h/mg
clearance [3]: 3.4 mL/min/kg
half-life [3]: 126 h
bioavailability [3]: 64%
AUC(0-t) ([11]; read-out: AUC (0-24)): 138 µM·h
half-life ([11]; read-out: plasma t ½): > 168 h
IC50 [7, 14]: 1.5 nM
minimum inhibition (CSF Aβ40) ([12]; 24 hrs (day 1) to 144 hrs (day 6)): > 25%
Peak lowering of CSF Aβ40 ([12]; 24 hrs after each dose): ~46%
average daily CSF Aβ40 reduction relative to baseline ([12]; over a one week period (168 hrs; 7 days)): ~35%
tolerability (unformed stool) ([12]; over the course of the study): no unformed stool or other tolerability issues
AUC (Norm)(0-x) [8]: 385 µM·kg·h/mg
half-life [8]: 228 h
bioavailability [8]: 84%
clearance [8]: 0.07 mL/min/kg
IC50 [9, 15]: 1.4 nM
IC50 ([4]; Aβ40, read-out: SY5Y Aβ40): 1.4 ± 0.9 nM
clearance [5]: 0.234 mL/min/kg
half-life [5]: 713 h
bioavailability [5]: 84%
AUC (Norm)(0-x) [5]: 99 µM·kg·h/mg
